One assay concerns the target G551D-CFTR (Homo sapiens, UniProt P13569, G551D). The arrangement: host or cells: CF patients carrying G551D-CFTR (endogenous protein). To be noted: CF patients with G551D-CFTR; reported; cited from earlier work.
For assay [1], the system named is CFBE41o-cells without WT CFTR complementation (parental cells). The experiment in a line: Short-circuit current (Isc) in Ussing chambers, parental CFBE41o- cells without detectable CFTR expression. To be noted: ivacaftor 10 μM after amiloride 100 μM and forskolin 100 nM; parental cells without detectable CFTR expression (FIG. 1A). Type of assay: cell-based, human. As for the experimental part: CFBE41o-cells complemented by stable expression of WT-CFTR (by a lentivirus promoter) are shown in comparison to CFBE41o-cells without WT CFTR complementation (parental cells). *P<0.05, **P<0.005, n=5/condition.
The CFTR potentiator ivacaftor was chosen as an exemplary CFTR activator. The activity of ivacaftor was examined in WT-CFTR expressing cells.
Short-circuit current (Isc) was measured under voltage clamp conditions using MC8 voltage clamps and P2300 Ussing chambers (Physiologic Instruments, San Diego, Calif.) as previously described (2). Monolayers were initially bathed on both sides with identical Ringer's solutions containing (in mM) 115 NaCl, 25 NaHCO3, 2.4 KH2PO4, 1.24 K2HPO4, 1.2 CaCl2, 1.2 MgC2, 10 D-glucose (pH 7.4). Bath solutions were vigorously stirred and gassed with 95%02:5% CO2. Short-circuit current measurements were obtained using an epithelial voltage clamp (Physiologic Instruments). A one-second three-mV pulse was imposed every 10 seconds to monitor resistance calculated using Ohm's law. Where indicated, the mucosal bathing solution was changed to a low Cl-solution containing 1.2 NaCl and 115 Na+ gluconate, and all other components as above. Amiloride (100 μM) was added to block residual Na+ current, followed by the agonists forskolin, ivacaftor, and ATP as indicated (minimum five-min observation at each concentration). […]

Another assay deals with HBE cells. The experiment in a line: Airway surface liquid (ASL) depth measurement by confocal microscopy in HBE monolayers. Type of assay: cell-based, human. Particulars: ivacaftor 10 μM basolateral, 24 h, confocal (FIGS. 2A, 2B). Here is the method:
White scale bars designate 10 μm.
Dotted line indicates ASL depth of a panel of CF HBE cells using the exact same method.
The apical surfaces of HBE cells were washed three times and then test compounds added to the basolateral compartment 24 h prior to labeling. Cells were stained with CMFDA (100 μM) in the cell culture medium for 1 hr. Texas red dye (25 μl at 2 mg/ml in Fc70) was added apically and cells allowed to equilibrate 2 h at 37° C. Transwell membranes were placed in sterile glass bottom dish coated with MEM, and imaged with a Carl Zeiss (Peabody, Mass.) confocal microscope using 20× (numerical aperture 0.88, working distance 0.55 mm) air objective lens. Cells were visualized with DIC optics to evaluate cell morphology before initiating fluorescence microscopy. Subsequently, Zscan confocal fluorescent microscopy images were acquired from the top of the ASL through the top of the cell surface. XZ scans were analyzed using Zen2008 software at four ROI per well each located 1 mm from the filter periphery and at each quadrant; 5 estimates of ASL depth were taken equally dispersed across each ROI (7, 9).

SMILES strings stand for the structures.

G551D-CFTR, sequence (P13569 whole entry G551D): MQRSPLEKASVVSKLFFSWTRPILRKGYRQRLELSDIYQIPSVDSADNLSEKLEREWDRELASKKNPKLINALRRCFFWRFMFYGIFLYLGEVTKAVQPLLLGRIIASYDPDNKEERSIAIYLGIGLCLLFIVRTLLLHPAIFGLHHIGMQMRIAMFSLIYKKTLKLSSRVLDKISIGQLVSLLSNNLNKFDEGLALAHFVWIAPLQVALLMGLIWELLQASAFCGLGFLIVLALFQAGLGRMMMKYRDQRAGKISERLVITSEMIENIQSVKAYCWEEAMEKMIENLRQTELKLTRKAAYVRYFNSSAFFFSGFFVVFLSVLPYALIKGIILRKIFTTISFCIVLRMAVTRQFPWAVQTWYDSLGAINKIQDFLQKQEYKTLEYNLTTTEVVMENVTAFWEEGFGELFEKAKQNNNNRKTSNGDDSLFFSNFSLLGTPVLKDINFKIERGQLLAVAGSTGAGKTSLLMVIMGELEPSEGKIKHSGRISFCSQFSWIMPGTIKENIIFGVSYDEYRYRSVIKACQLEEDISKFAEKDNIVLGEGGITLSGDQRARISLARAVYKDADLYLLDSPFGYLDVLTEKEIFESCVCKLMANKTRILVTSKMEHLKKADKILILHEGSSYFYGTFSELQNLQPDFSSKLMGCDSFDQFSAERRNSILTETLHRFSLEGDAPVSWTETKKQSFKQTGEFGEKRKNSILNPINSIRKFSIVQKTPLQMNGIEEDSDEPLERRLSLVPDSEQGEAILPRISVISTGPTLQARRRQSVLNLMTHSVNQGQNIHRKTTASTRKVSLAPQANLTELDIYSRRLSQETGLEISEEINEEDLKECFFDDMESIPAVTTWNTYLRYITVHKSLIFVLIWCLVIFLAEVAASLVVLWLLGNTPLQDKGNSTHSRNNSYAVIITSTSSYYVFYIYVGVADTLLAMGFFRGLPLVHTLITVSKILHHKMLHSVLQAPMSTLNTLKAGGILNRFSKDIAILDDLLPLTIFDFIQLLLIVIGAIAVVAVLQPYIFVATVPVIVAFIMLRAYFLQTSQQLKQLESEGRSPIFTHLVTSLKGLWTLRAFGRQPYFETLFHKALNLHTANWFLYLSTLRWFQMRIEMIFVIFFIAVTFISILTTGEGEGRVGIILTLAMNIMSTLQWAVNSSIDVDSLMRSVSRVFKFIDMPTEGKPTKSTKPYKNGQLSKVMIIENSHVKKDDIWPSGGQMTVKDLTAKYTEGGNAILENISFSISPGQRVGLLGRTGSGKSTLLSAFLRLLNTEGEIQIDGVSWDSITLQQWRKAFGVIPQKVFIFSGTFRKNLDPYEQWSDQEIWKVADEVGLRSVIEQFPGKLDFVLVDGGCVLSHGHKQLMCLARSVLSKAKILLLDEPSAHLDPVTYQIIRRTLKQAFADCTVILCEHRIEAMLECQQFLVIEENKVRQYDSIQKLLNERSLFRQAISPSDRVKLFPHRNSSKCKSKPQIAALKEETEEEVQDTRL

Take `CC(C)(C)c1cc(C(C)(C)C)c(NC(=O)c2c[nH]c3ccccc3c2=O)cc1O` [ivacaftor]: at G551D-CFTR, the “measures of CFTR activity” value is on record as “improved” and the pulmonary function entry is reported as “enhanced”. Besides, the “anion transport (Isc)” value in assay [1] is recorded as “no activity”. Also, the ASL depth entry in the assay with HBE cells is reported as “enhanced”.

The values above are taken from patent US10300052B2, “Methods for increasing CFTR activity” (THE UAB RESEARCH FOUNDATION, priority 2012, dated 2019).
